{"source": "paper PMC8147998", "about": "“Apigenin and Structurally Related Flavonoids Allosterically Potentiate the Function of Human α7-Nicotinic Acetylcholine Receptors Expressed in SH-EP1 Cells” (Cells, 2021)"}
{"target": "T1, α7 human nicotinic acetylcholine receptor (α7 nACh receptor) (Homo sapiens, UniProt P36544)", "T1 construct": "gene CHRNA7; homomeric receptor stably expressed in SH-EP1 cells", "T1 sequence (P36544 23-502)": "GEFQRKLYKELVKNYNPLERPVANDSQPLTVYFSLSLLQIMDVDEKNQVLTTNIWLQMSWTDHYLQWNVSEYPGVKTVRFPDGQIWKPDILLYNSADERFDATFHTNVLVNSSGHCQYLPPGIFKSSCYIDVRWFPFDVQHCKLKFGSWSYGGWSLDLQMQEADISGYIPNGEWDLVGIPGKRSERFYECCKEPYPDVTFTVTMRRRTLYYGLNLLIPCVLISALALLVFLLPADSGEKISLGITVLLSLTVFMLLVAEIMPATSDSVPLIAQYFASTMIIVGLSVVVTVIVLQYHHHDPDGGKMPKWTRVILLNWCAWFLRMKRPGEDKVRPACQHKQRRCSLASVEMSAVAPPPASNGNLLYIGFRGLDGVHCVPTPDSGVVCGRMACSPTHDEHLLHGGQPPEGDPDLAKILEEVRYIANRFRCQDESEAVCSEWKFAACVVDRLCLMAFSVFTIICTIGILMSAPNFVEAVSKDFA", "assay": "Fluo-4 Ca2+ transient potentiation in SH-EP1 cells ([…] ACh); no change in […]-α-bungarotoxin binding", "format": "cell-based", "settings": "SH-EP1, read-out: % potentiation at 10 μM", "units": {"activation at 10 µM": "%"}}
{"smiles": "O=c1cc(-c2ccc(O)cc2)oc2cc(O)cc(O)c12", "note": "[apigenin]", "activation at 10 µM": 48}
{"smiles": "O=C(CCc1ccc(O)cc1)c1c(O)cc(O)cc1O", "note": "[phloretin]", "activation at 10 µM": 112}
{"smiles": "O=c1c(O)c(-c2ccc(O)cc2)oc2cc(O)cc(O)c12", "note": "[kaempferol]", "activation at 10 µM": 81}
{"smiles": "O=c1cc(-c2ccc(O)c(O)c2)oc2cc(O)cc(O)c12", "note": "[luteolin]", "activation at 10 µM": 72}
{"smiles": "O=c1c(O)c(-c2ccc(O)c(O)c2)oc2c(O)c(O)cc(O)c12", "note": "[gossypetin]", "activation at 10 µM": 65}
{"smiles": "O=c1c(-c2ccc(O)cc2)coc2cc(O)cc(O)c12", "note": "[genistein]", "activation at 10 µM": 83}
{"target": "T1, α7 human nicotinic acetylcholine receptor (α7 nACh receptor)", "assay": "Fluo-4 Ca2+ transient potentiation in SH-EP1 cells ([…] ACh); no change in […]-α-bungarotoxin binding", "format": "cell-based", "settings": "SH-EP1; read-out: % potentiation at 10 μM", "units": {"activation at 10 µM": "%"}}
{"smiles": "O=c1c(O)c(-c2ccc(O)c(O)c2)oc2cc(O)cc(O)c12", "note": "[quercetin]", "activation at 10 µM": 73}
